“Also recorded” adds a separate entry of the source.
Legend:
Type in all cases: in vivo
[1] = tested on: mice; experiment: Chronic corticosterone-induced anhedonia, sucrose preference test; settings: single administration, measured after 24 hours
Procedure: For assessing the baseline sucrose preference, mice were singly housed for 24 hours and presented with two identical bottles containing either tap water or 1% sucrose solution. Following baseline sucrose measurement, mice were re-grouped housed (5 mice per cage) and treated for 4 weeks with corticosterone (25 μg/ml equivalent) given in water bottles. Prior to initiation of any behavioral measurements, animals were weaned off corticosterone treatment; 3 days corticosterone 12.5 μg/ml and 3 days corticosterone 6.25 μg/ml, followed by 1 week of complete withdrawal from the drug. Mice were subsequently singly-housed in freshly-made home cages and provided with two bottles containing either tap water or 1% sucrose solution. Twenty-four hours later, mice that developed anhedonia phenotype (<55% sucrose preference) were treated with saline or (2R,6R)-HNK (10 mg/kg) and sucrose preference measured after an additional 24 hours.

[2] = tested on: mice; experiment: Chronic corticosterone-induced anhedonia, female urine sniffing test; settings: single administration, mice with anhedonic phenotype, re-test 24 hours later
Procedure: A separate cohort of mice were treated with the same chronic corticosterone administration paradigm as described above, and 24 hours later assessed for female urine sniffing preference as a measure of hedonic behavior. Mice were singly-housed in freshly-made home cages for a habituation period of 10 min. Subsequently, one plain cotton tip was secured on the center of the cage wall and mice were allowed to sniff and habituate to the tip for a period of 30 min. Then, the plain cotton tip was removed and replaced by two cotton tip applicators one infused with fresh female mouse estrus urine and the other with fresh male mouse urine. These applicators were presented at the same time and secured at the two corners of the cage wall. Sniffing time for both the female and male urine was scored by a trained observer for a period of three minutes.

[3] = tested on: male CD-1 mice; experiment: Novelty-suppressed feeding (NSF); settings: i.p.
Excerpt: (§1) Male CD-1 mice (8-10 weeks old, Charles River Laboratories, Mass., USA) were housed in groups of four-five per cage with a constant 12-hour light/dark cycle (lights on/off at 07:00/19:00). Food and water were available ad libitum. Mice acclimatized to the new environment for seven days prior to the start of the experiments. For the whole-cell NMDA current electrophysiological recordings, male Sprague-Dawley rats (housed three per cage; Charles River, Wilmington, Mass.) were used. EPSC recording were done from rats at postnatal day 24-25. All experimental procedures were approved by the University of Maryland, Baltimore Animal Care and Use Committee and were conducted in full accordance with the National Institutes of Health Guide for the Care and Use of Laboratory Animals.
Mice were singly housed and food-deprived for twenty-four hours in freshly-made home-cages. Two normal chow diet pellets were placed on a square food platform (10×10 cm) in the center of an open-field arena (40×40 cm). […] The time needed for the mice to take a bite of food was recorded over a 10 min period by a trained observer blind to the treatment groups. After the test, the mice were returned to their home cage containing pre-weighed food pellets, and latency to bite the food as well as consumption was recorded for a period of 10 min.

[4] = tested on: male CD-1 mice; experiment: Learned helplessness (LH); settings: single injection
Excerpt: as §1
The LH paradigm consisted of three different phases, i.e., inescapable shock training, LH screening, and the LH test. For the inescapable shock portion of the test (Day 1), the animals were placed in one side of two-chambered shuttle boxes (34 cm height×37 cm width×18 cm depth; Coulbourn Instruments, PA, USA), with the door between the chambers closed. Following a five-min adaptation period, 120 inescapable foot-shocks (0.45 mA, 15 sec duration, randomized average inter-shock interval of 45 sec) were delivered through the grid floor. During the screening session (Day 2), the mice were placed in one of the two chambers of the apparatus for 5 min. A shock (0.45 mA) was then delivered, and the door between the two chambers was raised simultaneously. Crossing over into the second chamber terminated the shock. […] A total of 30 screening trials of escapable shocks were presented to each mouse with an average of 30 sec delay between each trial. Mice that developed helplessness behavior (>5 escape failures during the last 10 screening shocks) were administered with the respective drug 24 hours following screening (Day 3). During the LH test phase (Day 4), the animals were placed in the shuttle boxes and, after a 5-min adaptation period, a 0.45 mA shock was delivered concomitantly with door opening for the first five trials, followed by a 2-sec delay for the next 40 trials. Crossing over to the second chamber terminated the shock. […] A total of 45 trials of escapable shock were presented to each mouse with 30 sec inter-trial intervals. The number of escape failures was recorded for each mouse.

[5] = tested on: mice; experiment: Accelerating rotarod (motor coordination); settings: 5-60 min post-injection, i.p.
Procedure: The rotarod test was conducted to compare the effects of ketamine, (2S,6S)-HNK and (2R,6R)-HNK on motor coordination. The experiment consisted of two phases: training phase (4 days) and a test phase (1 day). On each of the training days five trials (trial time: 3 min) were conducted with an inter-trial interval of two min Mice were individually placed on the rotarod apparatus (HTC Life Science; Woodland Hills, Calif., USA) and the rotor (3.75 inch diameter) accelerated from 5-20 RPM over a period of three minutes. Latency to fall was recorded for each trial. Animals with an average of <100 sec of latency to fall during the last training day were excluded from the experiment. On the test day (day 5), mice received (i.p.) injections of saline, (R,S)-KET (10 mg/kg), (2S,6S)-HNK (25 or 125 mg/kg) or (2R,6R)-HNK (2.5 or 125 mg/kg) and were tested in the rotating rod 5-. 10-, 15-, 20-, 30- and 60-min post-injection using the same procedure described for the training days.

In the case of `N[C@@]1(c2ccccc2Cl)CCC[C@@H](O)C1=O` [(2R,6R)-HNK, (2R,6R)-2-amino-2-(2-chlorophenyl)-6-hydroxycyclohexanone], the “reversal of chronic corticosterone-induced decrease in sucrose preference” value [1] is reported as “reversed chronic corticosterone-induced decreases in sucrose preference; also recorded: reversed chronic corticosterone-induced anhedonia”, the “reversal of chronic corticosterone-induced decrease in female urine sniffing preference” value [2] is reported as “reversed chronic corticosterone-induced decrease in female urine sniffing preference; also recorded: reversed chronic corticosterone-induced anhedonia” and the “antidepressant-like effect in novelty-suppressed feeding (latency to feed)” value [3] is reported as “dose-dependent antidepressant-like effects; also recorded: dose-dependent antidepressant action”. The “doses with antidepressant-like effects in learned helplessness” value [4] was 5 to 75 mg/kg, the “antidepressant-like effect in learned helplessness (escape failures)” value ([4]; test 24 hours after administration) was “greater potency and longer-lasting antidepressant-like effects; also recorded: dose-dependent antidepressant-like responses; also recorded: more potent antidepressant effects; also recorded: dose-dependent antidepressant action” and the “motor coordination in the rotarod” value [5] was “did not affect coordination”.
